# Experiments:
# [1] = test system: SK-Br3 breast cancer cell line; experiment: Cancer cell growth inhibition, SK-Br3 (SRB); settings: Homo sapiens, SK-BR-3, 72 h, read-out: ID50 (nM) SK-Br3
# [2] = biological target: EGFR T790M kinase (Homo sapiens, UniProt P00533, T790M); experiment: Inhibition of EGFR mutant enzyme (T790M); settings: read-out: IC50 (nM) T790M; EGFR T790M kinase
# [3] = test system: H1975 lung cancer cell line; experiment: Cancer cell growth inhibition, H1975 (celltiter); settings: Homo sapiens, NCI-H1975, 48 h, read-out: IC50 (nM) H1975
# Method: The medium was removed from each well of the 96-well plate.
# In case of H1975, the cells were diluted with a culture medium to a concentration of 50,000 cells/ml. 100 μl of the diluted cell solution was added to each well of a 96-well plate, and, after 1 day, was washed with a mixture of RPMI, 0.1% FBS and 1% penicillin-streptomycin (PS), followed by replacement of the medium. The plate was allowed to be kept overnight and be treated to various concentrations under the same medium condition for 48 hrs. Similarly to an MTT assay, 15 μl of a celltiter one shot solution (Promega) was added to each well, which was incubated for 2 to 3 hrs, and, then, the absorbance at 490 nm was determined.
# [4] = test system: A431 skin cancer cell line; experiment: Cancer cell growth inhibition, A431 (SRB); settings: Homo sapiens, A-431, 72 h, read-out: ID50 (nM) A431
# [5] = test system: SW-620 colon/rectal cancer cell line; experiment: Cancer cell growth inhibition, SW-620 (SRB); settings: Homo sapiens, SW-620, 72 h, read-out: IC50 (nM) SW-620
# Sequence of EGFR T790M kinase (P00533 25-1210 T790M): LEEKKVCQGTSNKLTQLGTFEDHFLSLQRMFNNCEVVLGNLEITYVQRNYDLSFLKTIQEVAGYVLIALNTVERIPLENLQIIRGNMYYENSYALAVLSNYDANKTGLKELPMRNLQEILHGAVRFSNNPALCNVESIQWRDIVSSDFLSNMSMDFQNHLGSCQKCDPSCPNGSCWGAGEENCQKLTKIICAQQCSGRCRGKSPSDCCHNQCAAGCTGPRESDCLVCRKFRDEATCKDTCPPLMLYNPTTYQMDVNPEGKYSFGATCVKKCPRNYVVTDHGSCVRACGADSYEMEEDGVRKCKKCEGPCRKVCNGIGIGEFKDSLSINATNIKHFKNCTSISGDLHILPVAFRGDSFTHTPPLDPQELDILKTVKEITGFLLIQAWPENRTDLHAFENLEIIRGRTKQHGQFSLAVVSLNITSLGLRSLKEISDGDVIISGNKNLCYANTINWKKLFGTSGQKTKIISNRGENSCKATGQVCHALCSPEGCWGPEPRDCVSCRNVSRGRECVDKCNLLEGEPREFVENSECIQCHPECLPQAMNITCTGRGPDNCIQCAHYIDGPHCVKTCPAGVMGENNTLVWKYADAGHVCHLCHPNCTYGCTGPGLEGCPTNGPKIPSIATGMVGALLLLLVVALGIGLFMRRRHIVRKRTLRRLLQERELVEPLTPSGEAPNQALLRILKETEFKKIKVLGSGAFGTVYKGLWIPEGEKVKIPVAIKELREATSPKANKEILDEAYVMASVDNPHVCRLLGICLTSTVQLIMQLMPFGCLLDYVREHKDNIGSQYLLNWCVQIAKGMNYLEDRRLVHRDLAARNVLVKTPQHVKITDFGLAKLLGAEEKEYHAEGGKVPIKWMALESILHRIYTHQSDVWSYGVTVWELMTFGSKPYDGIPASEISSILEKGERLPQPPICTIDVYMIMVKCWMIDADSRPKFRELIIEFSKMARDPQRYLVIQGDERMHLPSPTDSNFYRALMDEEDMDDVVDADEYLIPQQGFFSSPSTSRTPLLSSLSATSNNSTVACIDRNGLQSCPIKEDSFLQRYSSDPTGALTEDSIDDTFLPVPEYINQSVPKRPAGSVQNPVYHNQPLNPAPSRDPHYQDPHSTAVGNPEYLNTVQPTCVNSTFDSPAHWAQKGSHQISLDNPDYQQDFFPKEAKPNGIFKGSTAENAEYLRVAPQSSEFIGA
SMILES,IC50 [1] [nM],IC50 [2] [nM],IC50 [3] [nM],IC50 [4] [nM],IC50 [5] [nM]
"C=CC(=O)N1CCC(Oc2cc3c(Nc4ccc(Br)c(C)c4)ncnc3cc2OC)CC1 [Example 39, 1-(4-(4-(4-bromo-3-methylphenylamino)-7-methoxyquinazolin-6-yloxy)piperidin-1-yl)pro-2-pen-1-one]",9,7.6,48,6,–
"C=CC(=O)N1CCC(Oc2cc3c(Nc4cccc(C)c4)ncnc3cc2OC)CC1 [Example 41, 1-(4-(4-(m-toluidino)-7-methoxyquinazolin-6-yloxy)piperidin-1-yl)pro-2-pen-1-one]",2,9.3,236,1,–
"C=C(CN(C)C)C(=O)N1CC(Oc2cc3c(Nc4ccc(F)c(Cl)c4F)ncnc3cc2OC)C1 [Example 104, 1-(3-(4-(3-chloro-2,4-difluorophenylamino)-7-methoxyquinazolin-6-yloxy)azetidin-1-yl)-2-((dimethylamino)methyl)prop-2-en-1-one]",1.5,2,11,41,> 5000
"C=CC(=O)N1CC[C@H](Oc2cc3c(Nc4ccc(F)c(Cl)c4F)ncnc3cc2OC)C[C@H]1C(=O)NCCSC [Example 128, (2S,4S)-1-acryloyl-4-(4-(3-chloro-2,4-difluorophenylamino)-7-methoxyquinazolin-6-yloxy)-N-(2-(methylthio)ethyl)piperidin-2-carboxamide]",5,1.4,5,2.4,> 5000
"C=C(CN1CCOCC1)C(=O)N1CC(Oc2cc3c(Nc4ccc(F)c(Cl)c4F)ncnc3cc2OC)C1 [Example 105, 1-(3-(4-(3-chloro-2,4-difluorophenylamino)-7-methoxyquinazolin-6-yloxy)azetidin-1-yl)-2-(morpholinomethyl)prop-2-en-1-one]",0.5,4,8,1.5,> 5000
"C=CC(=O)N1CCC(Oc2cc3c(Nc4ccc(F)c(Cl)c4)ncnc3cc2OC)CC1 [Example 57, 1-(4-(4-(3-chloro-4-fluorophenylamino)-7-methoxyquinazolin-6-yloxy)piperidin-1-yl)pro-2-pen-1-one]",2,–,16,17,> 5000
"C=CC(=O)N1CC[C@@H](Oc2cc3c(Nc4ccc(Cl)c(Cl)c4F)ncnc3cc2OC)C[C@@H]1C(N)=O [Example 139, (2R,4R)-1-acryloyl-4-(4-(3,4-dichloro-2-fluorophenylamino)-7-methoxyquinazolin-6-yloxy)piperidin-2-carboxamide]",1.1,–,1.1,0.8,> 5000
"C=CC(=O)N1CC[C@H](Oc2cc3c(Nc4ccc(F)c(Cl)c4F)ncnc3cc2OC)C[C@H]1C(=O)NCCO [Example 126, (2S,4S)-1-acryloyl-4-(4-(3-chloro-2,4-difluorophenylamino)-7-methoxyquinazolin-6-yloxy)-N-(2-hydroxyethyl)piperidin-2-carboxamide]",0.9,1.8,39,5.4,> 5000
"C=CC(=O)N1CC[C@H](Oc2cc3c(Nc4ccc(F)c(Cl)c4F)ncnc3cc2OC)C[C@H]1C(=O)NCCOC [Example 127, (2S,4S)-1-acryloyl-4-(4-(3-chloro-2,4-difluorophenylamino)-7-methoxyquinazolin-6-yloxy)-N-(2-methoxyethyl)piperidin-2-carboxamide]",2.3,3.8,11,3.4,> 5000
"C=CC(=O)N1CC[C@H](Oc2cc3c(Nc4ccc(F)c(Cl)c4F)ncnc3cc2OC)C[C@H]1C(=O)NCCN(C)C [Example 130, (2S,4S)-1-acryloyl-4-(4-(3-chloro-2,4-difluorophenylamino)-7-methoxyquinazolin-6-yloxy)-N-(2-(dimethylamino)ethyl)piperidin-2-carboxamide]",0.9,6.6,30,5.7,> 5000
"C=CC(=O)N1CC[C@H](Oc2cc3c(Nc4ccc(F)c(Cl)c4F)ncnc3cc2OC)C[C@H]1C(=O)NCCS(C)(=O)=O [Example 129, (2S,4S)-1-acryloyl-4-(4-(3-chloro-2,4-difluorophenylamino)-7-methoxyquinazolin-6-yloxy)-N-(2-(methylsulfonyl)ethyl)piperidin-2-carboxamide]",0.6,3,50.4,2.2,–
"C=CC(=O)N1CCC(Oc2cc3c(Nc4cccc(C=C)c4)ncnc3cc2OC)CC1 [Example 73, 1-(4-(7-methoxy-4-(3-vinylphenylamino)quinazolin-6-yloxy)piperidin-1-yl)pro-2-pen-1-one]",1.2,3,27,1.9,> 5000
"C=CC(=O)N1CCC(Oc2cc3c(Nc4cccc(Br)c4)ncnc3cc2OC)CC1 [Example 42, 1-(4-(4-(3-bromophenylamino)-7-methoxyquinazolin-6-yloxy)piperidin-1-yl)pro-2-pen-1-one]",0.7,7.1,96,1,–
"C=CC(=O)N1CCC(Oc2cc3c(Nc4cccc(C(F)(F)F)c4)ncnc3cc2OC)CC1 [Example 58, 1-(4-(7-methoxy-4-(3-(trifluoromethyl)phenylamino)quinazolin-6-yloxy)piperidin-1-yl)pro-2-pen-1-one]",20,16.2,–,58,> 5000
"C=CC(=O)N1CC[C@@H](Oc2cc3c(Nc4ccc(F)c(Cl)c4F)ncnc3cc2OC)C[C@@H]1C(=O)NC [Example 136, (2R,4R)-1-acryloyl-4-(4-(3-chloro-2,4-difluorophenylamino)-7-methoxyquinazolin-6-yloxy)-N-methylpiperidin-2-carboxamide]",0.2,0.9,2.6,2.9,> 5000

# From patent US8188102B2, “Amide derivative for inhibiting the growth of cancer cells” (Hanmi Holdings Co., Ltd., priority 2007, dated 2012)
